Reference: patent US10537100B2, “Substituted methylenedioxybenzyl compounds and their use as synergists” (Endura SPA, priority 2015, dated 2020)

Assays:
[1] = target: T1, Myzus persicae resistance associated esterase, FE4 (Myzus persicae, UniProt P35502); assay: Inhibition of resistance associated esterase FE4, 4-nitrophenyl acetate substrate; type: biochemical; details: for inhibition activity compared with PBO: FE4, statement in text; for remaining activity at 10000 µM (stock): purified FE4, 2.5 μL of 10 mM in acetone, 10 min incubation, 4-nitrophenyl acetate 0.8 mM, read-out: Myzus persicae esterases - percentage of the activity remaining FE4
T1 construct: would be utilized for the purified esterases from aphids; from tissue; host or cells: aphids (Myzus persicae)
T1 sequence (P35502 24-564): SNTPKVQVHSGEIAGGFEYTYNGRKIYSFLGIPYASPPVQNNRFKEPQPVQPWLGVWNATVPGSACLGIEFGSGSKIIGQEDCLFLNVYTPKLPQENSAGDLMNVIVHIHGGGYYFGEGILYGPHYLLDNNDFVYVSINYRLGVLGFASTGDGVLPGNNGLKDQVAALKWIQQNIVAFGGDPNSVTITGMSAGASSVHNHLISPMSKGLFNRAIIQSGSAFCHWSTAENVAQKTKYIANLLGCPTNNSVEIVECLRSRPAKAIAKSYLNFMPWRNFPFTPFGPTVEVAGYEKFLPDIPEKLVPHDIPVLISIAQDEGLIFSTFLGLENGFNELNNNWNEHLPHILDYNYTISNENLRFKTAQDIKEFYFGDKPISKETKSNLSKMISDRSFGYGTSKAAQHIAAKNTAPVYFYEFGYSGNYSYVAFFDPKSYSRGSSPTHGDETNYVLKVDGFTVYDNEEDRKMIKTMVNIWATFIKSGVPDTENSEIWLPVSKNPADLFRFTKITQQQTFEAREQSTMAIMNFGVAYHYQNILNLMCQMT
Method: It was envisaged, therefore, that the ‘esterase interference assay’ (Khot et al., 2008) would be utilized for the purified esterases from aphids. Various esterase substrates were assessed to find one suitable of monitoring inhibition in an insect homogenate. The Myzus persicae resistance associated esterase, FE4, was used.
Initially the esterase interference assay was carried out, as being the ‘absolute’ protocol for characterising interactions between the compounds of Example 1 and Example 2 and FE4. However, since this is a protracted method, and it would not be applicable for the B. tabaci esterases, a selection of products already reported in the literature were used to compare the interference assay and the use of a model substrate.
From the literature (Philippou et al., 2013) it is known that 1-naphthyl acetate is not suitable for this assay. Instead, 4-nitrophenyl acetate was used. A 10 mM pNA stock was prepared in acetone and added to 0.02 M phosphate buffer pH 7.0 (final concentration 2 mM). The comparison was made with 6 analogues of variable efficacy.
For the assay 10 μL of purified FE4 was diluted to a total volume of 50 μL by the addition of 0.02 M phosphate buffer, pH 7.0 in individual wells of a microplate (maxisorb, NUNC). To each well, 2.5 μL of 10 mM of the compound of Example 1 and of Example 2 in acetone was added and incubated for 10 mins, with acetone only used as a control. Following incubation, 100 μL of 0.02 phosphate buffer, pH 7.0 and 100 μL of 2 mM 4-nitrophenyl acetate was added (final volume in well 250 μL, final substrate concentration 0.8 mM). Enzyme activity was read at 405 nm in a Spectramax Tmax for 5 min, with readings taken every 5 s. The rate (mOD min^−1) was calculated by the integrated software, Softmax Pro v.5.4. A PBO solution (10 mM) was prepared in the same way as a comparison.

[2] = tested on: CYP6CM1 from Bemisia tabaci; assay: Inhibition of recombinant oxidase enzyme (P450) CYP6CM1, 7-ethoxycoumarin O-deethylation; details: for inhibition activity compared with PBO: CYP6CM1, statement in text; for Bemisia tabaci CYPCM1 percentage of activity remaining: recombinant enzyme 50 μL + 3 μL of 10 mM stock in acetone, 10 min incubation, 7-ethoxycoumarin
Method: Ability of the synergists of the invention to inhibit oxidative enzymes (P450), a major mechanism conferring resistance to xenobiotics, was measured using recombinant enzymes corresponding to CYP6CY3 from Myzus persicae and CYP6CM1 from Bemisia tabaci.
The following synergists were tested in comparison with piperonyl butoxide (PBO): • 5-n-butyl-6-((prop-2-ynyloxy)methyl)benzo[d][1,3]dioxole the compound prepared in Example 2 • 5-n-hexyl-6-((prop-2-ynyloxy)methyl)benzo[d][1,3]dioxole the compound prepared in Example 1 CYP6CM1
Substrate used was 7-ethoxycoumarin for inhibition assays as described by Ulrich and Weber (1972) and adapted to microplate format as described by De Sousa et al. (1995).
For inhibition assays, stock solutions of the compounds of Example 1 and Example 2 (10 mM) were prepared in acetone. Diluted recombinant enzyme (50 μL) was mixed with 3 μL of the above mentioned compound stock solutions, with acetone only used as a control. After 10 min incubation at room temperature, 80 μL of 0.125 mM 7-ethoxycoumarin was added, followed by 10 μL 9.6 mM NADPH (nicotinamide adenine dinucleotide phosphate) in 0.1 M sodium phosphate, pH 7.8, and O-deethylation activity monitored as above. A PBO solution (10 mM) was prepared in the same way as a comparison.

Musca domestica = assay: Contact test on treated glass surfaces, synergist with cypermethrin; type: in vivo; details: in combination with cypermethrin
Method: Laboratory bred Musca domestica species, 4-5 days old mixed sex imagoes derived from a field collected strain were assayed for the test. 1000 ml of test solutions were prepared diluting in water 6.06 grams of cypermethrin commercial formulation, equivalent to 0.224 g of cypermethrin per liter of insecticidal solution and a suitable amount of synergist such as to have a ratio between cypermethryn and synergists=1:13. The synergists were formulated in the form of emulsified concentrate (EC). The following amount of the formulations of synergist EC were added to the above described insecticidal solution of cypermethrin.
3.83 g of EC formulation containing 77.1% (w/w) of the compound of Example 2 (5-n-butyl-6-((prop-2-ynyloxy)methyl)benzo[d][1,3]dioxole)
3.57 g of EC formulation containing 83% (w/w) of the comparison compound 5-(but-2-ynyloxymethyl)-6-n-propyl-benzo[1,3]dioxole (EN126) corresponding to 2.95 g of the compound of the invention and of the comparison product per liter of test formulation
1 ml of each test formulation was applied to each individual grass surface of 100 cm^2 by means of a hand held pump sprayer on a scale measuring by 2 decimal precision, being the acceptable limit of divergence: +/−10%. The treated glass surfaces were left at room temperature for 24 hours after treatment and prior to be used. 40 mixed sex Musca domestica imagoes (20 males and 20 females) were selected and placed into a 500 cm^3 glass cylinders covered with an untreated glass surface until the start of the study. Five replicates were executed, altogether 200 houseflies (100 males and 100 females) were used per test formulation. At the beginning of the test, the untreated glass covering the glass cylinder was replaced with a glass surface treated with the test formulation. The exposure time was 30 minutes. After this period of time, the treated glass surfaces were removed and replaced with untreated ones. During the test water and food (water/sugar solution) were provided to the test insect inside the glass cylinders
In parallel with the test, the mortality of flies in an untreated control replicate was determined using the same conditions and methods. Throughout the control test, non-treated glass surfaces covered the glass cylinders. The maximum mortality rate allowed within the control group to consider the test representative was 10% after 24 hours. If above this value, the test was not considered representative and was repeated. During the trials, no deviance has been noted.
The test conditions were as follows: • temperature: 23-25° C. • relative humidity: min. 60% • light regime: 12 hrs dark/12 hrs natural illumination.
The reading intervals of the number of knocked down flies were: 10-20-30-40-50-60-90-120-180 minutes. Mortality was determined after 24 hours.
The efficacy was calculated according the following formula

Structure (SMILES)	inhibition activity compared with PBO [1]	remaining activity at 10000 µM (stock) [1] [%]	inhibition activity compared with PBO [2]	Bemisia tabaci CYPCM1 percentage of activity remaining [2] [%]	efficacy compared with comparison product EN126 (Musca domestica)	knock down activity compared with comparison product EN126 (Musca domestica; clearly notable at short times)
C#CCOCc1cc2c(cc1CCCCCC)OCO2 [Compound of Example 1, 5-n-hexyl-6-((prop-2-ynyloxy)methyl)benzo[d][1,3]dioxole]	better than PBO	23.1	better than PBO	85.19	–	–
C#CCOCc1cc2c(cc1CCCC)OCO2 [Compound of Example 2, 5-n-butyl-6-((prop-2-ynyloxy)methyl)benzo[d][1,3]dioxole]	better than PBO	28.7	better than PBO	53.48	better efficacy	better knock down activity
